Measurements taken from the CheMixHub viscosity set.

Experiment: xn = mol fraction of the nth substance listed

O=C(O)c1cc(O)c(O)c(O)c1 + CC(C)=O
viscosity [mPa·s], 101 kPa
Conditions | 293.15 K | 298.15 K | 303.15 K | 308.15 K | 313.15 K
x1 = 0.0034 | 0.361 | 0.345 | 0.332 | 0.318 | 0.307
x1 = 0.0069 | 0.383 | 0.367 | 0.348 | 0.337 | 0.323
x1 = 0.01 | 0.401 | 0.388 | 0.368 | 0.352 | 0.338
x1 = 0.014 | 0.424 | 0.409 | 0.383 | 0.368 | 0.356

Oc1ccccc1Cl + CC(C)=O
101 kPa
Conditions | viscosity [mPa·s]
293.15 K, x1 = 0.09296 | 0.475
293.15 K, x1 = 0.1779 | 0.611
293.15 K, x1 = 0.3108 | 0.992
293.15 K, x1 = 0.4089 | 1.376
293.15 K, x1 = 0.5253 | 2.051
293.15 K, x1 = 0.6914 | 3.17
293.15 K, x1 = 0.8336 | 3.91
298.15 K, x1 = 0.101 | 0.442
298.15 K, x1 = 0.2004 | 0.644
298.15 K, x1 = 0.2997 | 0.857
298.15 K, x1 = 0.4006 | 1.217
298.15 K, x1 = 0.5 | 1.666
298.15 K, x1 = 0.5999 | 2.19
298.15 K, x1 = 0.6997 | 2.712
298.15 K, x1 = 0.7988 | 3.086
298.15 K, x1 = 0.9003 | 3.303
303.15 K, x1 = 0.09296 | 0.419
303.15 K, x1 = 0.1779 | 0.569
303.15 K, x1 = 0.3108 | 0.893
303.15 K, x1 = 0.4089 | 1.199
303.15 K, x1 = 0.5253 | 1.684
303.15 K, x1 = 0.6914 | 2.4
303.15 K, x1 = 0.8336 | 2.85
313.15 K, x1 = 0.09296 | 0.382
313.15 K, x1 = 0.1779 | 0.508
313.15 K, x1 = 0.3108 | 0.777
313.15 K, x1 = 0.4089 | 1.019
313.15 K, x1 = 0.5253 | 1.369
313.15 K, x1 = 0.6914 | 1.886
313.15 K, x1 = 0.8336 | 2.165
323.15 K, x1 = 0.09296 | 0.3515
323.15 K, x1 = 0.1779 | 0.465
323.15 K, x1 = 0.3108 | 0.687
323.15 K, x1 = 0.4089 | 0.893
323.15 K, x1 = 0.5253 | 1.154
323.15 K, x1 = 0.6914 | 1.527
323.15 K, x1 = 0.8336 | 1.735

Oc1ccccc1Cl + CC(C)CO
Conditions | viscosity [mPa·s]
303.15 K, 101 kPa, x1 = 0.3796 | 5.333

CC(C)c1ccccc1 + CC(C)O
viscosity [mPa·s], 101 kPa
Conditions | x2 = 0.1013 | x2 = 0.2013 | x2 = 0.2991 | x2 = 0.4002 | x2 = 0.4993 | x2 = 0.6002 | x2 = 0.7002 | x2 = 0.8006 | x2 = 0.9002
303.15 K | 0.6764 | 0.6831 | 0.7003 | 0.7299 | 0.7766 | 0.8482 | 0.9452 | 1.104 | 1.34
308.15 K | 0.6347 | 0.6402 | 0.6534 | 0.6776 | 0.7151 | 0.7732 | 0.8534 | 0.9869 | 1.183
313.15 K | 0.5971 | 0.599 | 0.6093 | 0.6291 | 0.6596 | 0.7081 | 0.7742 | 0.8854 | 1.046
318.15 K | 0.562 | 0.5619 | 0.5682 | 0.5853 | 0.611 | 0.6508 | 0.7041 | 0.7975 | 0.9303
323.15 K | 0.5287 | 0.5275 | 0.5322 | 0.5444 | 0.5654 | 0.5976 | 0.6419 | 0.7195 | 0.8272

CCCCOC(C)=O + CC(C)O
viscosity [mPa·s], 100 kPa
Conditions | x1 = 0.081 | x1 = 0.1599 | x1 = 0.24 | x1 = 0.35 | x1 = 0.44 | x1 = 0.5601 | x1 = 0.65 | x1 = 0.74 | x1 = 0.85 | x1 = 0.9397
293.15 K | 1.638 | 1.156 | 0.884 | 0.725 | 0.688 | 0.674 | 0.686 | 0.686 | 0.703 | 0.717
298.15 K | 1.439 | 1.038 | 0.812 | 0.684 | 0.652 | 0.648 | 0.652 | 0.652 | 0.665 | 0.673
303.15 K | 1.256 | 0.924 | 0.747 | 0.643 | 0.608 | 0.601 | 0.608 | 0.616 | 0.629 | 0.632
308.15 K | 1.119 | 0.847 | 0.687 | 0.592 | 0.56 | 0.557 | 0.564 | 0.564 | 0.582 | 0.584
313.15 K | 0.972 | 0.74 | 0.613 | 0.536 | 0.516 | 0.516 | 0.522 | 0.525 | 0.531 | 0.543
318.15 K | 0.862 | 0.658 | 0.538 | 0.482 | 0.469 | 0.474 | 0.481 | 0.487 | 0.496 | 0.502
323.15 K | 0.759 | 0.574 | 0.469 | 0.431 | 0.428 | 0.436 | 0.443 | 0.451 | 0.457 | 0.461

CCCCCCCC(=O)O + CC(C)[C@@H]1CC[C@@H](C)C[C@H]1O
viscosity [mPa·s]
Conditions | 293.15 K | 298 K | 298.15 K | 303.15 K | 308.15 K | 313.15 K | 318.15 K | 323.15 K
100 kPa, x1 = 0.4 | 19.83 | – | 15.29 | 12.01 | 9.58 | 7.8 | 6.43 | 5.37
101 kPa, x2 = 0.333 | – | 12 | – | – | – | – | – | –

CCCN + CCC(C)(C)O
Conditions | viscosity [mPa·s]
308.15 K, 101 kPa, x2 = 0.9498 | 2.305

CCCCOC(C)=O + CCC(C)=O
308 K, 101 kPa
Conditions | viscosity [mPa·s]
x1 = 0.0999 | 0.468
x1 = 0.2002 | 0.484
x1 = 0.3 | 0.52
x1 = 0.4 | 0.533
x1 = 0.4997 | 0.569
x1 = 0.5997 | 0.584
x1 = 0.7 | 0.606
x1 = 0.7997 | 0.642
x1 = 0.9004 | 0.669

Oc1ccccc1Cl + CCC(C)=O
298.15 K, 101 kPa
Conditions | viscosity [mPa·s]
x1 = 0.1005 | 0.517
x1 = 0.1961 | 0.7
x1 = 0.3003 | 0.913
x1 = 0.3994 | 1.322
x1 = 0.501 | 1.744
x1 = 0.6001 | 2.277
x1 = 0.6991 | 2.736
x1 = 0.8006 | 3.091
x1 = 0.8991 | 3.315
